Entries after “also recorded” stand apart in the source; their conditions may differ.
Key:
[1] = system: opioid receptors (tail flicking latency); test: Assessment of opioid mechanism via tail immersion test with Naloxone; type: in vivo; details: mice; for Latency response 30 min: control 3.14 ± 0.31; for Latency response 60 min: control 3.17 ± 0.41; for Latency response 120 min: control 3.20 ± 0.29; for Latency response 90 min: control 3.31 ± 0.44
Experimental: The cut-off time was set at 25 s, and the time taken for the mice to flick their tails out of the water was recorded at 30, 60, 90, and 120-min intervals. An increase in the time of tail immersion was compared to the control group to determine the analgesic effect of the tested drugs. The percentage of inhibition was calculated at the time interval showing the highest effect.
To verify the involvement of the opioid mechanism, following the approach outlined in the published study. […] These derivatives were assessed for their potential opioid activity within the control, sample compounds and standard groups using the tail immersion test.

COX-2 enzyme = target: T1, COX-2 enzyme (Homo sapiens, UniProt P35354); test: COX-2 inhibitory assay; type: biochemical; details: Table 2
T1 construct: purchased Sigma Aldrich
T1 sequence (P35354 18-604): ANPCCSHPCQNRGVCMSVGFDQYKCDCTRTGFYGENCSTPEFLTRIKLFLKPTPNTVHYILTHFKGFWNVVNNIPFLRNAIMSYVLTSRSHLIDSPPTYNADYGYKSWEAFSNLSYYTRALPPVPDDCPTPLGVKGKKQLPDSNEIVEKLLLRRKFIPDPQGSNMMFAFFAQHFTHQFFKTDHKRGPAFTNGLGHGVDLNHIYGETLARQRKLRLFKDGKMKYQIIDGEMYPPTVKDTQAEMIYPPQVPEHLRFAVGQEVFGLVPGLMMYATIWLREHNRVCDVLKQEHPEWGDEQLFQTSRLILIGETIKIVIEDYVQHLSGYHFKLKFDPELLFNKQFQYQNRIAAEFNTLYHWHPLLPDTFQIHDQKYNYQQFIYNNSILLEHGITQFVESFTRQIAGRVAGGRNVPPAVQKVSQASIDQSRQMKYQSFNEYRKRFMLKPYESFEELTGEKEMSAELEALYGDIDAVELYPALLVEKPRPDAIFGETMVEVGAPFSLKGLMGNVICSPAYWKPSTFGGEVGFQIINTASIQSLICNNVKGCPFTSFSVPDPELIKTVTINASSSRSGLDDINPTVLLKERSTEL
Experimental: COX-2 inhibition was measured spectrophotometrically at 550 nm after the formation of oxidized form of tetramethlenephenylenediamine (TMPD). This assay was conducted according to previously reported procedure. […] The reaction contained 10 μL COX-2 enzymes (100 μM in diluted in DMSO), 10 μL haem of 2.2 mM diluted in DMSO, tris buffers (pH. 8, 100 μl) and drug samples according to the above stated procedure. The reaction was started by the addition of freshly prepared TMPD and methanolic arachidonic acid (AA). Celecoxib is used as a reference drug in this assay. After 5 min of incubation at 25–28C, the absorbance was measured at 550 nm and inhibition was calculated.

[2] = system: acetic acid induced writhing; test: Acetic acid induced writhing test; type: in vivo; details: mice; for number of writhing: mean ± SEM, control 61.22 ± 3.90
Experimental: The animals were divided into various groups I-XVI consisting of 8 experimental animals for control, sample compounds (WE-1 to WE-7) and standard. Group I: Control, Group II-XV: WE-1 to WE-7 (sample compounds) at dose of 10 mg/kg and 20 mg/kg and Group XVI: Standard. The control (Group I) was given normal saline. Group II-XV received 10 mg/kg and 20 mg/kg of test sample (WE-1 to WE-7). […] The writhing test, following a previously established method, was conducted to assess the analgesic potential of the aurone derivatives. The mice were orally administered samples compounds (WE-1 to WE-7)and standard (Diclofenac sodium 10 mg/kg) 1 h before intraperitoneal administration 10 ml/kg of 1 % acetic acid. Five minutes after the acetic acid administration, the numbers of writhing episodes were counted for 10 min, and the percentage of inhibition was subsequently calculated.

LOX enzyme = target: T2, LOX enzyme (Glycine max, UniProt P08170); test: LOX enzyme kinetic assay (Lineweaver-Burk); type: biochemical; details: Lineweaver-Burk plot
T2 construct: purchased Cayman Chemicals
T2 sequence (P08170 1-839): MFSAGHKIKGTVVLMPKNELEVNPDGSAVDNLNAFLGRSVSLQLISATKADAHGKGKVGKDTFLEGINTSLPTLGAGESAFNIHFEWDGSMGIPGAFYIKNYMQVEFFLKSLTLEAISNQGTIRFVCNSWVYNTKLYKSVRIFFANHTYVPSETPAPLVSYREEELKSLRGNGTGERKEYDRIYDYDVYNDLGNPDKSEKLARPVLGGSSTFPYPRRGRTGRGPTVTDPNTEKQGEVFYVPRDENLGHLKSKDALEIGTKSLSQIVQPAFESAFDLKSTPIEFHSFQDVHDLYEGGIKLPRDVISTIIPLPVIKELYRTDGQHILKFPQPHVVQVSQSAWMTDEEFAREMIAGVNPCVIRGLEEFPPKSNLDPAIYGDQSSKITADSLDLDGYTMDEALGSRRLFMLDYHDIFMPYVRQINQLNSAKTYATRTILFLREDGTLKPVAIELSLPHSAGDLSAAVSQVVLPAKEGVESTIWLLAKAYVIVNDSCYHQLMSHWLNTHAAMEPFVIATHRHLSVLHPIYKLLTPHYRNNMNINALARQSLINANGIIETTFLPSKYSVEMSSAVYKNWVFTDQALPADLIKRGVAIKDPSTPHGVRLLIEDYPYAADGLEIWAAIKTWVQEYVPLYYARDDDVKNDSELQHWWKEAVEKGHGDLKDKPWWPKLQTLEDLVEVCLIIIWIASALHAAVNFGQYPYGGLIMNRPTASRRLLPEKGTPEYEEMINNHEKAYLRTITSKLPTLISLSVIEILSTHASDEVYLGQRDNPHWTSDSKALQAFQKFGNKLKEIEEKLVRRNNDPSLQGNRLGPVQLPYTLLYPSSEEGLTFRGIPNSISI
Experimental: The type of enzyme inhibition by compound (WE-4) was determined using the continuous spectrophotometric rate determination method. Various concentrations of the substrate (AA) were prepared in a Tween-20 solution within a 200 mM borate buffer at pH 9.0. A fixed concentration of LOX enzyme (10,000 units/ml) was prepared in a separate 200 mM borate buffer at pH 9.0. The enzyme kinetics were analyzed by employing the Lineweaver and Burk method while examining the substrate at different concentrations in the presence or absence of compound (WE-4).

COc1ccc(C=C2Oc3ccccc3C2=O)cc1OC [WE-4, 2-(3,4-dimethoxybenzylidene)benzofuran-3(2H)-one]
Latency response 30 min ([1]; 10 mg/kg + Naloxone 2 mg/kg): 3.60 ± 0.61
Latency response 60 min ([1]; 10 mg/kg + Naloxone 2 mg/kg): 4.49 ± 0.43
Latency response 120 min ([1]; 10 mg/kg + Naloxone 2 mg/kg): 3.80 ± 0.49
Latency response 90 min ([1]; 10 mg/kg + Naloxone 2 mg/kg): 5.30 ± 0.48
Latency response 30 min ([1]; 20 mg/kg + Naloxone 2 mg/kg): 3.41 ± 0.48
Latency response 60 min ([1]; 20 mg/kg + Naloxone 2 mg/kg): 4.67 ± 0.60
Latency response 120 min ([1]; 20 mg/kg + Naloxone 2 mg/kg): 4.03 ± 0.57
Latency response 90 min ([1]; 20 mg/kg + Naloxone 2 mg/kg): 4.80 ± 0.61
IC50 (COX-2 enzyme): 0.22 µM
percent analgesic effect (inhibition of writhing) ([2]; 10 mg/kg oral): 71.30%
number of writhing ([2]; 10 mg/kg oral): 17.57 ± 1.94
percent analgesic effect (inhibition of writhing) ([2]; 20 mg/kg oral): 77.60%
number of writhing ([2]; 20 mg/kg oral): 13.71 ± 1.77
melting point: 175 to 178 °C
type of enzyme inhibition (LOX enzyme): non-competitive inhibitor; also recorded: non-competitive inhibition

From PMC11058299, “Synthesis, molecular docking evaluation for LOX and COX-2 inhibition and determination of in-vivo analgesic potentials of aurone derivatives” (Heliyon, 2024)
